From patent publication US8354402B2, “Polyarylcarboxamides useful as lipid lowering agents” (Janssen Pharmaceutica N.V., priority 2000, dated 2013)

System: ApoB secretion, HepG2 cells
Experiment: Quantification of the secretion of ApoB (HepG2 cells, immunoprecipitation, scintillation counting)
Format: cell-based
Details: Homo sapiens, HepG2, 24 h, 24 hours of incubation
Description: C.1. Quantification of the Secretion of ApoB
HepG2 cells were cultured in 24-well plates in Minimal Essential Medium Rega 3 containing 10% fetal calf serum. Rega 3 has the following composition: CaCl2 (264 μg/ml), KCl (400 μg/ml), MgSO4.7H2O (200 μg/ml), NaCl (6800 μg/ml), NaHCO3 (850 μg/ml), NaH2PO4.H2O (158 μg/ml), D-glucose (1000 μg/ml), phenol red (10 μg/ml), L-alanine (8.9 μg/ml), L-arginine HCl (12 μg/ml), L-asparagine.H2O (15 μg/ml), L-aspartic acid (13.3 μg/ml), L-cystine (24 μg/ml), L-glutamic acid (14.7 μg/ml), glycine (7.5 μg/ml), L-histidine.HCl .H2O (42 μg/ml), L-isoleucine (52 μg/ml), L-leucine (52 μg/ml), L-lysine.HCl (72.5 μg/ml), L-methionine (15 μg/ml), L-phenylalanine (32 μg/ml), L-proline (11.5 μg/ml), L-serine (10.5 μg/ml), L-threonine (48 μg/ml), L-tryptophan (10 μg/ml), L-tyrosine (36 μg/ml), L-valine (46 μg/ml), D-Ca pantothenate (1 μg/ml), choline chloride (1 μg/ml), folic acid (1 μg/ml), 1-enositol (2 μg/ml), nicotinamide (1 μg/ml), pyridoxal HCl (1 μg/ml), riboflavin (0.1 μg/ml) and thiamine HCl (1 μg/ml).
At 70% confluency, the medium was changed and the test compound or carrier (dimethylsulfoxide, 0.4% final concentration) was added. After 24 hours of incubation, the medium was transferred to Eppendorf tubes and cleared by centrifugation. A sheep antibody directed against either apo B was added to the supernatant and the mixture was kept at 8° C. for 24 hours. Then, rabbit anti-sheep antibody was added and the immune complex was allowed to precipitate for 24 hours at 8° C. The immunoprecipitate was pelleted by centrifugation for 25 minutes at 1320 g and washed twice with a buffer containing 40 mM 4-morpholinepropanesulfonic acid, 40 mM NaH2PO4, 100 mM NaF, 0.2 mM dithiothreitol, 5 mM ethylenediamine tetraacetic acid, 5 mM ethylenebis (oxyethylenenitrilo) tetraacetic acid, 1% Triton-X-100, 0.5% sodium deoxycholate, 0.1% sodium dodecylsulphate, 0.2 μM leupeptin and 0.2 μM phenylmethylsulphonylfluoride. Radioactivity in the pellet was quantified by liquid scintillation counting.
Resulting IC50 values are enumerated in Table C.1 for a number of compounds No. 1 to No. 123.

SMILES | IC50
CCOC(=O)C(c1ccccc1)N1CCCN(c2ccc(NC(=O)c3ccccc3-c3ccc(C(F)(F)F)cc3)cc2)CC1 (stereo not drawn) [Co. No. 120] | 357 nM
CCCOC(=O)C(c1ccccc1)N1CCCN(c2ccc(NC(=O)c3ccccc3-c3ccc(C(F)(F)F)cc3)cc2)CC1 (stereo not drawn) [Co. No. 121] | 2110 nM
O=C(Nc1ccc(N2CCN(C(C(=O)Nc3ccccc3)c3ccccc3)CC2)cc1)c1ccccc1-c1ccc(C(F)(F)F)cc1 (stereo not drawn) [Co. No. 140] | 20.3 nM
O=C(Nc1ccc(N2CCN(C(C(=O)NCc3ccccc3)c3ccccc3)CC2)cc1)c1ccccc1-c1ccccc1 (stereo not drawn) [Co. No. 141] | 25.1 nM
O=C(Nc1ccc(N2CCN(C(C(=O)OCc3ccccc3)c3ccccc3)CC2)cc1)c1ccccc1-c1ccc(C(F)(F)F)cc1 (stereo not drawn) [Co. No. 142] | 114 nM
COC(=O)C(c1ccccc1)N1CCC(c2ccc(NC(=O)c3ccccc3-c3ccccc3)cc2)CC1 (stereo not drawn) [Co. No. 143] | 234 nM
C=CCOC(=O)C(c1ccccc1)N1CCN(c2ccc(NC(=O)c3ccccc3-c3ccc(C(F)(F)F)cc3)cc2)CC1 (stereo not drawn) [Co. No. 144] | 202 nM
O=C(Nc1ccc(N2CCN(C(C(=O)Nc3ccccc3)c3ccccc3)CC2)cc1)c1ccccc1-c1ccccc1 (stereo not drawn) [Co. No. 145] | 185 nM
O=C(Nc1ccc(N2CCN(C(C(=O)OCc3ccccc3)c3ccccc3)CC2)cc1)c1ccccc1-c1ccccc1 (stereo not drawn) [Co. No. 147] | 287 nM
O=C(Nc1ccc(N2CCN(C(C(=O)Oc3ccccc3)c3ccccc3)CC2)cc1)c1ccccc1-c1ccccc1 (stereo not drawn) [Co. No. 150] | 173 nM
O=C(Nc1ccc(C2CCN(C(C(=O)OCc3ccccc3)c3ccccc3)CC2)cc1)c1ccccc1-c1ccc(C(F)(F)F)cc1 (stereo not drawn) [Co. No. 151] | 612 nM

The remaining lines, values ahead:

IC50 | SMILES
414 nM | CCNC(=O)C(c1ccccc1)N1CCCN(c2ccc(NC(=O)c3ccccc3-c3ccc(C(F)(F)F)cc3)cc2)CC1 (stereo not drawn) [Co. No. 122]
241 nM | CCCNC(=O)C(c1ccccc1)N1CCCN(c2ccc(NC(=O)c3ccccc3-c3ccc(C(F)(F)F)cc3)cc2)CC1 (stereo not drawn) [Co. No. 123]
2770 nM | O=C(Nc1ccc(N2CCC(C(C(=O)Nc3ccccc3)c3ccccc3)CC2)cc1)c1cccc2c1-c1ccccc1C2 (stereo not drawn) [Co. No. 129]
360 nM | CCCNC(=O)C(c1ccccc1)C1CCN(c2ccc(NC(=O)c3ccccc3-c3ccccc3C(F)(F)F)cc2)CC1 (stereo not drawn) [Co. No. 130]
417 nM | CCCNC(=O)C(c1ccccc1)C1CCN(c2ccc(NC(=O)c3ccccc3-c3ccccc3C)cc2)CC1 (stereo not drawn) [Co. No. 131]
50.2 nM | CCCNC(=O)C(c1ccccc1)C1CCN(c2ccc(NC(=O)c3ccccc3-c3ccc(C(C)(C)C)cc3)cc2)CC1 (stereo not drawn) [Co. No. 132]
> 3000 nM | CCCNC(=O)C(c1ccccc1)C1CCN(c2ccc(NC(=O)c3ccccc3-c3cccc(N)c3)cc2)CC1 (stereo not drawn) [Co. No. 133]
65.3 nM | CCNC(=O)C(c1ccccc1)C1CCN(c2ccc(NC(=O)c3ccccc3-c3cccc4ccccc34)cc2)CC1 (stereo not drawn) [Co. No. 134]
149 nM | CCNC(=O)C(c1ccccc1)C1CCN(c2ccc(NC(=O)c3ccccc3-c3ccccc3OC)cc2)CC1 (stereo not drawn) [Co. No. 135]
148 nM | O=C(Nc1ccc(N2CCC(C(C(=O)NCc3ccccc3)c3ccccc3)CC2)cc1)c1ccccc1-c1cccc2ccccc12 (stereo not drawn) [Co. No. 136]
1770 nM | O=C(Nc1ccc(N2CCC(C(C(=O)Nc3ccccc3)c3ccccc3)CC2)cc1)c1ccccc1-c1cccc2ccccc12 (stereo not drawn) [Co. No. 137]
99.3 nM | O=C(Nc1ccc(N2CCC(C(C(=O)Nc3ccccc3)c3ccccc3)CC2)cc1)c1ccccc1-c1ccc2ccccc2c1 (stereo not drawn) [Co. No. 138]
86.1 nM | CCNC(=O)C(c1ccccc1)N1CCN(c2ccc(NC(=O)c3ccccc3-c3ccccc3)cc2)CC1 (stereo not drawn) [Co. No. 139]
341 nM | C=CCOC(=O)C(c1ccccc1)N1CCN(c2ccc(NC(=O)c3ccccc3-c3ccccc3)cc2)CC1 (stereo not drawn) [Co. No. 146]
60.4 nM | C=CCNC(=O)C(c1ccccc1)N1CCN(c2ccc(NC(=O)c3ccccc3-c3ccccc3)cc2)CC1 (stereo not drawn) [Co. No. 148]
41.7 nM | CCNC(=O)C(c1ccccc1)N1CCC(c2ccc(NC(=O)c3ccccc3-c3ccccc3)cc2)CC1 (stereo not drawn) [Co. No. 149]
